Assay results as given in ChEMBL document CHEMBL1145401, “Design and synthesis of classical and nonclassical 6-arylthio-2,4-diamino-5-ethylpyrrolo[2,3-d]pyrimidines as antifolates” (J Med Chem, 2007).

How the values were obtained:
[1] = Selectivity ratio of IC50 for rat liver DHFR to IC50 for Pneumocystis carinii DHFR
[2] = Inhibition of Escherichia coli DHFR
[3] = Selectivity ratio of IC50 for human DHFR to IC50 for Escherichia coli DHFR
[4] = molecular target: T1, Bifunctional dihydrofolate reductase-thymidylate synthase (Toxoplasma gondii, UniProt Q07422)
T1 sequence (Q07422 whole entry): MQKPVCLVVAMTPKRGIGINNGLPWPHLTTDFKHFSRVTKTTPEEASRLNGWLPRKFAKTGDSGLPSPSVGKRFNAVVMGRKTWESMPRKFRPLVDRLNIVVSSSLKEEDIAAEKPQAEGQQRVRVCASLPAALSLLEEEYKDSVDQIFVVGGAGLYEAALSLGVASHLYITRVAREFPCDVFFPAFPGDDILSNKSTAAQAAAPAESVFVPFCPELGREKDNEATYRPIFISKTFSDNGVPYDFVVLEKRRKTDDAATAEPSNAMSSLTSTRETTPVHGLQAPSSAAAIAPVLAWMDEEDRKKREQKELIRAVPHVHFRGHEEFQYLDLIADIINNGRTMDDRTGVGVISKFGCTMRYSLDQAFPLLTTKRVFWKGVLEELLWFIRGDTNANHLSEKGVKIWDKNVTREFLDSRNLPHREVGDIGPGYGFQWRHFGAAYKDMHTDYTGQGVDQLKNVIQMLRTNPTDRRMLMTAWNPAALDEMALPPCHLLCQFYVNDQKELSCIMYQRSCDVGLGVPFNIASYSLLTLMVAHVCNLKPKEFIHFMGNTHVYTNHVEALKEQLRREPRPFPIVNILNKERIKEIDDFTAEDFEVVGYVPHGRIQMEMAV
Description: Inhibition of Toxoplasma gondii DHFR

[5] = Selectivity ratio of IC50 for rat liver DHFR to IC50 for Mycobacterium avium DHFR
Dihydrofolate reductase [6] = molecular target: T2, Dihydrofolate reductase (Mycobacterium avium, UniProt O30463)
T2 sequence (O30463 whole entry): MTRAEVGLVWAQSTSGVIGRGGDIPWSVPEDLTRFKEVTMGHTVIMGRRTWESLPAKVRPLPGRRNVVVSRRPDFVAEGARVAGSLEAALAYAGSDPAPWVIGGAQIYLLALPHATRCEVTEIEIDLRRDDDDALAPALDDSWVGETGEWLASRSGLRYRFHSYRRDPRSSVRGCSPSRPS
Description: Inhibition of Mycobacterium avium DHFR

Dihydrofolate reductase [7] = molecular target: T3, Dihydrofolate reductase (Homo sapiens, UniProt P00374)
Dihydrofolate reductase [8] = molecular target: T4, Dihydrofolate reductase (Rattus norvegicus, UniProt Q920D2)
T4 sequence (Q920D2 whole entry): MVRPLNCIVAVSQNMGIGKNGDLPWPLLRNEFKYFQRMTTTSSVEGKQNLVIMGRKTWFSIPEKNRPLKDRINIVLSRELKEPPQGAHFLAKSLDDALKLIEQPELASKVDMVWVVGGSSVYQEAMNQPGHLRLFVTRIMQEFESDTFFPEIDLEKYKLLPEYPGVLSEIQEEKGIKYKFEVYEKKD
Description: Inhibition of rat liver DHFR

Dihydrofolate reductase [9] = molecular target: T3, Dihydrofolate reductase; assay: Inhibition of human DHFR relative to control; conditions: concentration not given here
Dihydrofolate reductase [10] = molecular target: T5, Dihydrofolate reductase (Pneumocystis carinii, UniProt P16184)
T5 sequence (P16184 whole entry): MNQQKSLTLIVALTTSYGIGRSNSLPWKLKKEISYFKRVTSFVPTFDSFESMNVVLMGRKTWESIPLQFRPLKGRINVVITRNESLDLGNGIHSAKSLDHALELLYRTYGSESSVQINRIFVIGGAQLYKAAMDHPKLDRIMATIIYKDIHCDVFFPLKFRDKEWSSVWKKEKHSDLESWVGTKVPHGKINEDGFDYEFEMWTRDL
Description: Inhibition of Pneumocystis carinii DHFR

SW-620 = assay: Cytotoxicity against SW620 cells; type: functional; conditions: Homo sapiens
UACC-62 = assay: Cytotoxicity against UACC62 cells; type: functional; conditions: Homo sapiens
K562 = assay: Cytotoxicity against K562 cells; type: functional; conditions: Homo sapiens
CCRF-CEM [11] = assay: cells; conditions: Homo sapiens
MDA-MB-435 = assay: Cytotoxicity against MDA-MB-435 cells; type: functional; conditions: Homo sapiens
MOLT-4 = assay: Cytotoxicity against MOLT4 cells; type: functional; conditions: Homo sapiens
PC-3 = assay: Cytotoxicity against PC3 cells; type: functional; conditions: Homo sapiens
CCRF-CEM [12] = assay: Effect on growth of human CCRF-CEM cells at 5000 nM in presence of 10 uM deoxycytidine, 10 uM hypoxanthine relative to control; type: functional
HT-29 = assay: Cytotoxicity against HT29 cells; type: functional; conditions: Homo sapiens
CAKI-1 = assay: Cytotoxicity against CAKI1 cells; type: functional; conditions: Homo sapiens
CCRF-CEM [13] = assay: Effect on growth of human CCRF-CEM cells at 5000 nM in presence of 10 uM deoxycytidine relative to control; type: functional
CCRF-CEM [14] = assay: Growth inhibition of human CCRF-CEM cells
KM12 = assay: Cytotoxicity against KM12 cells; type: functional; conditions: Homo sapiens
ACHN = assay: Cytotoxicity against ACHN cells; type: functional; conditions: Homo sapiens
SF-295 = assay: Cytotoxicity against SF295 cells; type: functional; conditions: Homo sapiens
CCRF-CEM [15] = assay: cells; conditions: Homo sapiens; remark: listed apart in the source
UO-31 = assay: Cytotoxicity against UO31 cells; type: functional; conditions: Homo sapiens
LOX IMVI = assay: Cytotoxicity against LOX IMVI cells; type: functional; conditions: Homo sapiens
SR = assay: Cytotoxicity against SR cells; type: functional; conditions: Homo sapiens
NCI-H460 = assay: Cytotoxicity against NCI-H460 cells; type: functional; conditions: Homo sapiens
HCT-116 = assay: Cytotoxicity against HCT116 cells; type: functional; conditions: Homo sapiens
OVCAR-8 = assay: Cytotoxicity against OVCAR8 cells; type: functional; conditions: Homo sapiens
SF-268 = assay: Cytotoxicity against SF268 cells; type: functional; conditions: Homo sapiens
MCF7 = assay: Cytotoxicity against MCF7 cells; type: functional; conditions: Homo sapiens
CCRF-CEM [16] = assay: Effect on growth of human CCRF-CEM cells at 5000 nM in presence of 10 uM deoxycytidine, 5 uM thymidine and 10 uM hypoxanthine relative to control; type: functional
SN12C = assay: Cytotoxicity against SN12C cells; type: functional; conditions: Homo sapiens
SF-539 = assay: Cytotoxicity against SF539 cells; type: functional; conditions: Homo sapiens
CCRF-CEM [17] = assay: cells; conditions: Homo sapiens; remark: listed apart in the source
CCRF-CEM [18] = assay: Cytotoxicity against CCRF-CEM cells; type: functional; conditions: Homo sapiens
CCRF-CEM [19] = assay: Effect on growth of human CCRF-CEM cells at 5000 nM in presence of 10 uM deoxycytidine, 5 uM thymidine relative to control; type: functional
DU-145 = assay: Cytotoxicity against DU145 cells; type: functional; conditions: Homo sapiens
U-251 = assay: Cytotoxicity against U251 cells; type: functional; conditions: Homo sapiens

CCc1c(Sc2cccc(OC)c2)[nH]c2nc(N)nc(N)c12
Ratio IC50 [1]: 1.1
IC50 [2]: 320 nM
Ratio IC50 [3]: > 100
IC50 [4]: 1090 nM
Ratio IC50 [5]: 40.5
IC50 (Dihydrofolate reductase [6]): 770 nM
IC50 (Dihydrofolate reductase [7]): > 32000 nM
IC50 (Dihydrofolate reductase [8]): 31000 nM
inhibition (Dihydrofolate reductase [9]): 35%
IC50 (Dihydrofolate reductase [10]): 28300 nM

CCc1c(Sc2ccc(C(=O)N[C@@H](CCC(=O)O)C(=O)O)cc2)[nH]c2nc(N)nc(N)c12
GI50 (SW-620): 26 nM
GI50 (UACC-62): 880 nM
GI50 (K562): 12 nM
EC50 (CCRF-CEM [11]): 6700 nM
GI50 (MDA-MB-435): 660 nM
GI50 (MOLT-4): 480 nM
GI50 (PC-3): 400 nM
Activity (CCRF-CEM [12]): 12%
GI50 (HT-29): 98 nM
GI50 (CAKI-1): 170 nM
Activity (CCRF-CEM [13]): 12%
EC50 (CCRF-CEM [14]): 68 nM
GI50 (KM12): 56 nM
GI50 (ACHN): 440 nM
GI50 (SF-295): 660 nM
EC50 (CCRF-CEM [15]): 5700 nM
GI50 (UO-31): 300 nM
GI50 (LOX IMVI): 44 nM
GI50 (SR): < 10 nM
GI50 (NCI-H460): 180 nM
IC50 (Dihydrofolate reductase [7]): 66 nM
GI50 (HCT-116): 23 nM
GI50 (OVCAR-8): 740 nM
GI50 (SF-268): 430 nM
GI50 (MCF7): 170 nM
Activity (CCRF-CEM [16]): 74%
GI50 (SN12C): 600 nM
GI50 (SF-539): 240 nM
EC50 (CCRF-CEM [17]): 200 nM
GI50 (CCRF-CEM [18]): 17 nM
Activity (CCRF-CEM [19]): 15%
GI50 (DU-145): 370 nM
GI50 (U-251): 530 nM

CCc1c(Sc2ccc(Br)cc2)[nH]c2nc(N)nc(N)c12
Ratio IC50 [1]: 0.4
IC50 [2]: 140 nM
Ratio IC50 [3]: 19.3
IC50 [4]: 11600 nM
Ratio IC50 [5]: 1.4
IC50 (Dihydrofolate reductase [6]): 7400 nM
IC50 (Dihydrofolate reductase [7]): 2700 nM
IC50 (Dihydrofolate reductase [8]): 10100 nM
IC50 (Dihydrofolate reductase [10]): 26600 nM

CCc1c(Sc2c(C)cccc2C)[nH]c2nc(N)nc(N)c12
IC50 [4]: 7100 nM
IC50 (Dihydrofolate reductase [6]): 18400 nM
IC50 (Dihydrofolate reductase [8]): 10100 nM
IC50 (Dihydrofolate reductase [10]): 30200 nM

CCc1c(Sc2cccc3ccccc23)[nH]c2nc(N)nc(N)c12
IC50 [4]: 3150 nM
IC50 (Dihydrofolate reductase [6]): 19800 nM
IC50 (Dihydrofolate reductase [7]): 2900 nM
IC50 (Dihydrofolate reductase [8]): 40100 nM
IC50 (Dihydrofolate reductase [10]): 18400 nM

Cc1c(Sc2ccc3ccccc3c2)[nH]c2nc(N)nc(N)c12
Ratio IC50 [1]: 0.1
IC50 [4]: 160 nM
Ratio IC50 [5]: 6.5
IC50 (Dihydrofolate reductase [6]): 700 nM

CCc1c(Sc2cc(OC)ccc2OC)[nH]c2nc(N)nc(N)c12
IC50 [4]: 120 nM
IC50 (Dihydrofolate reductase [7]): 5800 nM

CCc1c(Sc2ccc(OC)cc2)[nH]c2nc(N)nc(N)c12
IC50 [4]: 4620 nM
IC50 (Dihydrofolate reductase [6]): 3070 nM
IC50 (Dihydrofolate reductase [7]): 2900 nM
IC50 (Dihydrofolate reductase [8]): 31800 nM
IC50 (Dihydrofolate reductase [10]): 53000 nM

CCc1c(Sc2ccc(Cl)cc2)[nH]c2nc(N)nc(N)c12
Ratio IC50 [1]: 0.5
IC50 [4]: 1540 nM
Ratio IC50 [5]: 7.8
IC50 (Dihydrofolate reductase [6]): 700 nM
IC50 (Dihydrofolate reductase [7]): > 31000 nM
IC50 (Dihydrofolate reductase [8]): 5480 nM
inhibition (Dihydrofolate reductase [9]): 36%
IC50 (Dihydrofolate reductase [10]): 11900 nM

CCc1c(Sc2ccc(Cl)cc2Cl)[nH]c2nc(N)nc(N)c12
Ratio IC50 [1]: 0.2
IC50 [2]: 140 nM
Ratio IC50 [3]: 10
IC50 [4]: 220 nM
Ratio IC50 [5]: 3.3
IC50 (Dihydrofolate reductase [6]): 350 nM
IC50 (Dihydrofolate reductase [7]): 1400 nM
IC50 (Dihydrofolate reductase [8]): 1170 nM
IC50 (Dihydrofolate reductase [10]): 7190 nM
